As a reminder, the Kd is the free concentration of one partner at which half of the binding sites on the other are occupied at equilibrium, for simple one-to-one binding. Low readings indicate higher affinity, high ones lower affinity.

The results in this text go back to patent publication US20230097992A1, “BIVALENT EGF FUSION TOXINS” (The Regents of the University of Colorado, a body corporate, priority 2020, published 2023).

Values joined by “and” are separate entries in the source; they are usually repeats but may differ in a detail not shown here. Identical values can stand only once.

Series [1] deals with HNSCC Cal27 tongue-orthotopic tumors. The series is described as follows: Tongue-orthotopic tumor-bearing NSG mouse model. It counts as in vivo, NSG mice. The settings on record: Tongue orthotopic model; fusion toxin or DT390 50 μg/kg IP, erlotinib 20 mg/kg gavage, once daily for 10 days from day 4. Here is the method:
FIGS. 7A-7C presents the data from two animal studies of in vivo efficacy analysis of the human EGF fusion toxins against tongue squamous cell carcinomas (SCCs) in NSG mice. FIG. 7A presents the data from in vivo efficacy analysis of the human EGF fusion toxins using human EGFR-positive HNSCC Cal27 tongue-orthotopic tumor-bearing NSG mouse model. Eight million human EGFR-positive HNSCC Cal27 cells were injected into the tongue on day 0. Mice were injected intraperitoneally (IP) with the EGF fusion toxin or DT390 at 50 μg/kg, starting on day 4, once daily for 10 consecutive days. […] The schedule of the fusion toxin and tumor cell injection is pictured in the schematic below the survival curve. The vertical arrows indicate the days on which the tumor cells or the fusion toxins were injected. *P<0.05; **P<0.01; ***P<0.001; ****P<0.0001; ns: not significant.
FIG. 7B presents the data from a further in vivo efficacy analysis of the human EGF fusion toxins. […] The mice were euthanized on day 8 after tumor cell injection when the first mouse in the DT390 group reached the end point. The photograph depicts tongue squamous cell carcinomas (SCCs) (circled by the black dotted lines). Scale bar: 1 cm. FIG. 7C presents the FIG. 7B tumor volume comparison of the treatment groups. *P<0.05; **P<0.01
(§1) HNSCC tumor cells were injected via the following routes: 1) Flank-xenograft solid tumor model: eight million human HNSCC Cal27 tumor cells were subcutaneously injected into the right flank at day 0. The tumor-bearing mice were randomly divided into the four experimental groups when the tumors were palpable at day 3. The tumor volume was measured using digital vernier calipers every 3 days and calculated according to the formula: volume (mm^3)=(length×width×width)/2. 2) Tongue-orthotopic solid tumor model: eight million human HNSCC Cal27 tumor cells in 50 μl DMEM were injected into the tongue at day 0 following isoflurane anesthesia and the tumor-bearing mice were randomly divided into the planned four experimental groups at day 3. 3) Experimental metastasis model: one million human HNSCC Cal27 tumor cells in 200 μl DMEM were intravenously injected at day 0 via tail vein and the tumor-bearing mice were randomly divided into the four experimental groups at day 3.
(§2) Mono-EGF-IT (mEGF-IT), bEGF-IT, or DT390 was intraperitoneally injected (IP) starting at day 4 at 50 μg/kg, once daily for 10 consecutive days. […] The injected animals were observed daily for signs and symptoms of illness and scored at least twice weekly based on the parameters as previously reported (Peraino et al. (2013), J. Immunol. Methods 398-399, 33-43, which is hereby incorporated by reference in its entirety; Wang et al., 2015). The animals were humanely euthanized when the score exceeded the limit or the animal lost more than 15% of its pre-injection body weight. In addition, to assess whether the fusion toxins are toxic to the animals, NSG mice injected with the fusion toxins only were also included as control.
To assess the in vivo efficacy of the human EGF fusion toxins to the xenograft tumors in the head and neck area, a tongue-orthotopic tumor-bearing NSG mouse model was used as a second efficacy model. Eight million HNSCC Cal27 cells were injected into the tongue at day 0. The EGF fusion toxins were injected intraperitoneally (IP) starting on day 4 at 50 μg/kg daily for 10 consecutive days. Since the resulting tongue-orthotopic tumors severely affected the animal's eating and drinking, animals were euthanized earlier. Therefore, the median survival prolongation was not as impressive as that observed in the flank-xenograft solid tumor-bearing NSG mouse model. […] To further characterize the effect of the EGF fusion toxins on tumor volume, the orthotopic tongue SCC model study was repeated, and the mice were euthanized 8 days after tumor cell inoculation.

For series [2], the system named is HNSCC Cal27 cells injected intravenously (lung metastases). The series is described as follows: Experimental lung metastasis NSG mouse model. The class given is in vivo, NSG mice. The settings on record: for Median survival time: Lung metastasis model, fusion toxin or DT390 50 μg/kg IP, erlotinib 20 mg/kg gavage, once daily for 10 days from day 4. As to the method:
FIG. 8A-C presents data from in vivo efficacy analysis of the human EGF fusion toxins using an experimental lung metastasis NSG mouse model. FIG. 8A presents data from a first animal study for survival curve analysis. NSG mice were IV injected with one million human EGFR^+ HNSCC Cal27 cells on day 0. Mice were injected intraperitoneally (IP) with the EGF fusion toxin or DT390 at 50 μg/kg, once daily for 10 consecutive days starting on day 4 after the tumor cell injection. […] The schedule of the fusion toxin and tumor cell injection is pictured in the schematic below the survival curve. The vertical arrows indicate the days on which the tumor cells or the fusion toxins were injected. *P<0.05; **P<0.01; ***P<0.001; ****P<0.0001. The P-values for the survival curves were calculated using the Mantel-Cox log-rank test (GraphPad Prism9.0).
FIGS. 8B and C present data from a second animal study for a pathology analysis. […] The mice were euthanized on day 10 after tumor cell injection when the first mouse in the DT390 group reached the end point. FIG. 8B presents H&E pictures of lung metastases. Metastases are indicated in the upper panels by black arrowheads. Scale bar: 500 μm. The lower panels are higher magnification pictures of the area in black rectangles in the upper panels. […] Error bars indicate standard deviation (SD).
as §1, §2
The third in vivo efficacy model was an experimental metastasis model. One million of HNSCC Cal27 tumor cells were intravenously injected via the tail vein of NSG mice at day 0. The EGF fusion toxins were injected intraperitoneally (IP) starting on day 4 at 50 μg/kg daily for 10 consecutive days. […] To further assess the effects of the fusion toxins on metastasis, the experimental metastasis study was repeated with a second cohort of NSG mice, and all mice were euthanized 10 days after tumor cell inoculation, when the first mouse in the DT390 group reached the end point. The data are depicted in FIGS. 8B and C.

In series [3] the test system is HNSCC Cal27 subcutaneous xenografts. Put plainly: Flank-xenograft solid tumor-bearing NSG mouse model. It counts as in vivo, NSG mice. The conditions noted are these: Subcutaneous xenograft model; fusion toxin or DT390 50 μg/kg IP, erlotinib 20 mg/kg gavage, once daily for 10 days from day 4.
Source text: FIGS. 6A-6D presents the data from in vivo efficacy analysis of the human EGF fusion toxins against subcutaneous xenografts in NSG mice from two animal studies. FIG. 6A depicts the survival curve for NSG mice injected with Cal27 cells. […] FIGS. 6B-D depict tumor volume and weight data from the second study performed with a second cohort of NSG mice. […] Mice were euthanized on day 14 after tumor cell injection, when the first mouse in the DT390 group reached the end point. FIG. 6B: Tumor volumes were measured periodically, and the growth kinetics of the four groups were plotted. FIG. 6B depicts the tumor growth kinetics for a period of 14 days. FIG. 6C presents a bar graph representing the tumor weights at day 14. FIG. 6D depicts images of harvested tumors on day 14. Scale bar: 1 cm. FIGS. 6A-6C: *P<0.05; **P<0.01; ***P<0.001; ****P<0.0001; ns: not significant. The P-values for the survival curves in FIG. 6A were calculated using the Mantel-Cox log-rank test and that for the comparisons in FIGS. 6B and C were calculated using the two-tailed Student t-test (GraphPad Prism 9.0.0).
as §1, §2
In vivo efficacy of the mEGF-IT and bEGF-IT against HNSCC was assessed using three immunodeficient tumor-bearing NSG mouse models. The first in vivo efficacy model was a flank-xenograft solid tumor-bearing NSG mouse model. Eight million Cal27 tumor cells were injected subcutaneously (SQ) into the right flank at day 0. The EGF fusion toxins were injected intraperitoneally (IP) starting on day 4 at 50 μg/kg daily for 10 consecutive days. […] The reduction of the tumor volumes, weights and sizes (FIGS. 6B-6D) were all consistent with the median survival prolongation.

For the next series, the system named is NSG mice. The series is described as follows: In vivo off-target toxicity in NSG mice.
Source text: FIGS. 12A-C presents representative images of necropsy results for NSG mice treated with mono-EGF-IT or bi-EGF-IT without tumor cell injection. Mice were euthanized on day 13 after the first injection of the fusion toxins. The images show representative gross changes observed in the ear (FIG. 12A), liver (FIG. 12C) and gastrointestinal tract of a representative NSG mouse treated with mono-EGF-IT compared to a representative NSG mouse treated with bi-EGF-IT.
as §2
The main side effects of targeting EGFR are caused by off-target effects, because EGFR is expressed in many healthy tissues, include skin, liver, and gastrointestinal tract (Widakowich et al., (2007), Oncologist, 12, 1443-1455). […] To further assess these toxic effects, another in vivo toxicity study in non-tumor-bearing mice was performed. NSG mice were treated with mono-EGF-IT or bi-EGF-IT, without tumor cell injection.

Series [4] relates to 14 EGFR+ HNSCC cells lines. The series is described as follows: Flow cytometry binding, all 14 EGFR+ HNSCC cell lines together. Details: species or system human. The settings on record: mean over the 14 EGFR+ HNSCC cell lines. (A flow cytometer gives signals particle by particle.)
The mark [5] stands for this setting: non-tumor-bearing NSG mice, 13 days after the first injection.

For DT390, the Median survival time in series [1] is 10 days; in series [2] it was 8.5 days; in series [3], 14 days and 13 days.

In the case of “Mono-EGF IT: DT390 joined by G4S to one human EGF domain, C-terminal 6×His tag; SEQ ID NO: 15”, the Median survival time in series [1] turned out to be 11 days; in series [2], 32 days; in series [3], 14 days. Further, the “number of metastases in the lungs” value in series [2] (second cohort, euthanized 10 days after tumor cell inoculation) was “reduced compared with the DT390-negative control group”. The “adverse effects observed in treated mice” value with NSG mice (mice of the efficacy studies) is “generally unhealthy and lethargic and developed skin rashes”. In addition, the “general condition and skin” value with NSG mice (non-tumor-bearing NSG mice) is “generally unhealthy and lethargic with skin rashes”. In addition, in the series with NSG mice (setting [5]), the “necropsy, gastrointestinal tract” value is “mildly pale with scant ingesta in the stomach or cecum”. For the same substance, in the series with NSG mice (setting [5]), the “necropsy, liver” value was “diffuse pale livers with moderate reticular patterns”. Besides, binding in series [4] was characterised by a dissociation constant (Kd) of 12.2 nM.
